# In patent publication US20230146675A1, “PYRIMIDO[5,4-d]PYRIMIDINE DERIVATIVES AS ENT INHIBITORS FOR THE TREATMENT OF CANCERS, AND COMBINATION THEREOF WITH ADENOSINE RECEPTOR ANTAGONISTS” (ITEOS BELGIUM SA, priority 2020, published 2023):
# Read-outs that look alike come from different tables or passages of the source.
# Key:
# human ENT1 = biological target: T1, human ENT1 (Homo sapiens, UniProt Q99808); experiment: ENT1 binding assay (competition with Sahenta-DY647 on JAR cells); design: JAR cells expressing ENT1 were bought from ATCC; host or cells: JAR cells; conditions: binned IC50
# T1 sequence (Q99808 1-456): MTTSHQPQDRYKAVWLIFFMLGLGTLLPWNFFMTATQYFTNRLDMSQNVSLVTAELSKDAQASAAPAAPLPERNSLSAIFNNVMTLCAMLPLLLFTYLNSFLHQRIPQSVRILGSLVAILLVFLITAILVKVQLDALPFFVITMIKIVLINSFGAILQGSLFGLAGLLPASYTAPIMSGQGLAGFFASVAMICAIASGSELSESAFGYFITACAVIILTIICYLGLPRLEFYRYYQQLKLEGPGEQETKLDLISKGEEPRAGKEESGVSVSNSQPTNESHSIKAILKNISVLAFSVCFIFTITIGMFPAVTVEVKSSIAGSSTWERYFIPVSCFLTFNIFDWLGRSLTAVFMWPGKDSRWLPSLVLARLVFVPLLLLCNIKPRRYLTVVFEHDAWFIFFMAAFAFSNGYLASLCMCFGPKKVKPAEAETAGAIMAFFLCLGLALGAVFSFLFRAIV
# Outline: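 JAR cells were incubated with test compounds and the fluorescent ligand Sahenta-DY647 in competition. Plates were washed twice by centrifugation (4 min, 400 rcf, 4 °C). Binding potency was derived from the final fluorescence.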
# [1] = biological target: T2, Human phosphodiesterase-5 (Homo sapiens, UniProt O76074); experiment: PDE5 (h) (non-selective) assay; type: biochemical
# T2 construct: using an enzyme isolated from human platelets at Eurofins-Cerep; tissue Eurofins-Cerep; host or cells: human platelets
# Experimental: The test compound (compound 72), reference compound or water (control) were added to a buffer containing 40 mM Tris/HCl (pH 7.4), 8 mM MgCl2 0.21% BSA, 0.5 μg/ml calmoduline and 0.5 mM CaCl2), 1.125 μM cGMP and 0.027 μCi [3H]cGMP. Thereafter, the reaction was initiated by addition of the enzyme (about 0.2 U) and the mixture was incubated for 20 min at 22° C. For basal control measurements, the enzyme was omitted from the reaction mixture. Following incubation SPA beads were added. After 30 min at 22° C. under shaking, the amount of [3H]5′GMP was quantified with a scintillation counter (MicroBeta, Perkin Elmer). The results were expressed as a percent inhibition of the control enzyme activity. The standard inhibitory reference compound was Nitrendipine, which was tested in each experiment at several concentrations to obtain an inhibition curve from which its IC50 value was calculated. • Human phosphodiesterase-5 quantified by measuring the formation of 5′GMP from cGMP using an enzyme isolated from human platelets at Eurofins-Cerep.
# The test compound (compound 72), reference compound or water (control) were added to a buffer containing 40 mM Tris/HCl (pH 7.8), 3 mM MgCl2, 1.4 mM DTT, 0.21% BSA, 200 mM NH4Cl, 1 μM cGMP and 0.1 μCi [3H]cGMP. […] After 20 min at 22° C. under shaking, the amount of [3H]5′GMP was quantified with a scintillation counter (MicroBeta, Perkin Elmer). […]
smiles,measurement,setting,value
"COCCN(CCOC)c1nc(N2CCN(C)C(=O)C2)c2nc(N(CCOC)CCOC)nc(N3CCC(OC)CC3)c2n1 [Compound 72, 4-(2,6-bis(bis(2-methoxyethyl)amino)-8-(4-methoxypiperidin-1-yl)pyrimido[5,4-d]pyrimidin-4-yl)-1-methylpiperazin-2-one]",IC50,human ENT1,< 100 nM
same,IC50,[1]; read-out: PDE5 (h) (non-selective) IC50,1000 to 10000 nM
same,IC50,[1]; read-out: PDE5 IC50,1080 nM
